For assay [1], the system named is PC-12. In words: Neuritogenic activity in rat PC12 cells assessed as induction of neurite outgrowth at 1 to 30 uM after 48 hrs. Format: functional.
The test system of assay [2] is PC-12. Nature of the assay: Cytotoxicity against rat PC12 cells at 1 uM. Format: functional, cell-based.
Assay [3] concerns PC-12. Nature of the assay: Neuritogenic activity in rat PC12 cells assessed as induction of neurite outgrowth after 48 hrs. Format: functional, cell-based.
The subject of assay [4] is PC-12. Nature of the assay: Neuritogenic activity in rat PC12 cells assessed as induction of multipolar neurite outgrowth at 1 uM after 48 hrs. Format: functional, cell-based.
Assay [5] relates to PC-12. Nature of the assay: Neuritogenic activity in rat PC12 cells assessed as induction of bipolar neurite outgrowth at 1 uM after 48 hrs. Format: functional, cell-based.
Assay [6] has as its system PC-12. In words: Neuritogenic activity in rat PC12 cells assessed as induction of neurite outgrowth at 1 uM after 48 hrs. Format: functional.
Assay [7] concerns PC-12. Nature of the assay: Neuritogenic activity in rat PC12 cells assessed as induction of neurite outgrowth at 0.03 uM after 48 hrs. Format: functional, cell-based.
The subject of assay [8] is PC-12. In words: Neuritogenic activity in rat PC12 cells assessed as induction of neurite outgrowth at 30 uM after 48 hrs. Format: functional.

The source made the active and inactive calls. No cut-off for these calls is given here.

Take `CC[C@H](C)CCCCCCCCCCCCCCCCOC(=O)c1cccc(O)c1O` [GENTISIDE G]: the Activity in the assay on PC-12 [1] was 67%.

In the case of `CCCCCCCCCCCCCCCCCCCCCOC(=O)c1cccc(O)c1O` [GENTISIDE I], the Activity in the assay on PC-12 [1] stood at 67%.

Take `CC[C@H](C)CCCCCCCCCCCCCOC(=O)c1cccc(O)c1O` [GENTISIDE C]: the outcome in the assay with PC-12 [2] was inactive. Moreover, the Activity entry was “Dose-dependent effect” in the assay on PC-12 [3], 67% in the assay with PC-12 [1] and 91% in the assay with PC-12 [6]. For the same compound, the result with PC-12 [4], in the assay with PC-12 [5] and in the assay on PC-12 [7] was Active.

`CC[C@H](C)CCCCCCCCCCCCCCCCCOC(=O)c1cccc(O)c1O` [GENTISIDE H]: in the assay with PC-12 [1], the Activity was 67%.

For the compound `CCCCCCCCCCCCCCCCCCOC(=O)c1cccc(O)c1O` [GENTISIDE E], in the assay with PC-12 [1], the Activity was 67%.

`CC(C)CCCCCCCCCCCCCCCOC(=O)c1cccc(O)c1O` [GENTISIDE D]: the Activity with PC-12 [1] was determined as 67%.

In the case of `CC[C@H](C)CCCCCCCCCCCCCCCOC(=O)c1cccc(O)c1O` [GENTISIDE F], the Activity in the assay with PC-12 [1] is recorded as 67%.

Take `CCCCCCCCCCCCCCCCCCCCCCCCOC(=O)c1cccc(O)c1O` [GENTISIDE K]: in the assay on PC-12 [8], the Activity came out at 48%.

On to `CCCCCCCCCCCCCCCCCCCCCCOC(=O)c1cccc(O)c1O` [GENTISIDE J], for which the Activity in the assay on PC-12 [1] amounted to 67%.

The values above are taken from ChEMBL document CHEMBL1250534, “Gentisides C-K: nine new neuritogenic compounds from the traditional Chinese medicine Gentiana rigescens Franch” (2010).
